The source of these data is patent US7135457B1, “Random peptides that bind to gastro-intestinal tract (GIT) transport receptors and related methods” (Cytogen Corporation, priority 1997, dated 2006).

Peptide text beside a SMILES is read from it. * marks the point of attachment. Dansyl = CN(C)c1cccc2c(S(=O)(=O)*)cccc12

Data set [1] has as its system fixed Caco-2 or C2BBe1 cells. Put plainly: ELISA of GST fusion proteins on fixed Caco-2 or C2BBe1 cells. Format: binding. The conditions noted are these: Caco-2. Here is the method:
Fixed Caco-2, C2BBe1, and A431 cell plates were prepared by growing cells on tissue culture treated microtiter plates. When cells were confluent, plates were fixed with 10% formaldehyde, washed twice with PBS and stored with 0.5% BSA-PBS at −20° C. […] The standard ELISA procedure was followed at this point.
The standard ELISA procedure was modified as follows. GST proteins were diluted to an appropriate concentration in PBS containing 1% BSA and 0.05% Tween20 (1% BPT), titered and incubated one hour at room temperature. Following five washes an anti-GST monoclonal antibody was added (Sigma, St. Louis Clone GST-2 diluted 1:10,000 in 1% BPT) and incubated one hour. After five more washes goat anti-mouse IgG2b-HRP was added (Southern Biotechnology Associates Inc., Birmingham, Ala., diluted 1:4000 in 1% BPT) and incubated one hour. After five washes plates were developed with TMB peroxidase substrate (Kirkegard and Perry, Gaithersburg, Md.). All data is presented with background binding subtracted.

The subject of data set [2] is P100 membrane fractions derived from Caco-2 cells. The experiment in a line: Dansylated peptide ELISA on P100: PAX2 and HAX42 peptides relative binding. The conditions noted are these: PAX2 peptides, ratio to ZElan021 (HAX42 = 1.00); for Binding value at 20 μg/ml: first 20 μg/ml column. Here is the method:
(§1) The peptides and proteins were analyzed by a dansylated peptide ELISA method in which 96 well plates were coated overnight at 4° C. with 100 μl/well coating protein (normally 100 μg/ml P100 membrane fraction) in 0.05M carbonate buffer pH9.6. Nonspecific binding was blocked using 200 μl/well, 2% Marvel/PBS for 2 hours at 37° C. prior to incubation with dansylated peptides. The plates were washed three times with PBS/0.05% Tween 20 and after each subsequent incubation step. […] A buffer blank control was included to ensure that background binding to plastic was not due to the antibodies used in the assay system. […] The plates were then incubated with an anti-mouse λ-HRP conjugated antibody (Southern Biotech 1060-05) at a 1:10,000 dilution in blocking solution, 100 μl/well for 1 hour at room temperature. Plates were developed using 75 μl/well Bionostics TMB substrate and incubated for approximately 10 minutes. The developing reaction was stopped using Bionostics Red Stop solution (25 μl/well), and the optical density of the plates was read at 650 nm.

The test system is the same in data set [3]. Described as above. The conditions noted are these: ratio to ZElan021 (HAX42 = 1.00).
Data set [4] concerns P100 membrane fraction derived from Caco-2 cells. The experiment in a line: GST-PAX2 peptides relative binding to P100 fractions. The conditions noted are these: 20 μg/ml; binding to plastic subtracted; GST-HAX42 = 1.00. As to the method:
as §1
After subtraction of the GST-peptide binding to plastic from P100 binding values, the binding of GST-PAX2 peptides were represented as a ratio of GST-HAX42 binding to P100, which was given the arbitrary value of 1.00. The following ratios were determined from binding to P100 of GST-peptides at a peptide concentration of 20 μg/ml. Bold denotes positive binding to the P100 membrane fraction.

How the values of data set [5] were obtained: In particular, phages selected in vitro to each receptor or binding site located in the GIT were amplified in E. coli, PEG-precipitated, resuspended in TBS and the titer of each phage sample was determined by plaquing in E. coli as described above. […] Using the in situ loop model described above, 0.5 ml of preselected phage library solution was injected into the tied-off portion of the duodenum/jejunum. Blood was collected into heparinized tubes from the portal vein at 0, 15, 30, 45 and 60 minutes. A blood sample was taken from the systemic circulation at the end of the experiment. Similarly, the portion of the duodenum/jejunum used for phage injection was taken at the end of the experiment.
Thirty microliters of the collected portal blood (neat and 10^−2, 10^−4, 10^−6 dilutions) was added to 30 μl E. coli K91Kan cells (overnight culture) and incubated at 37° C. for 10 min. Subsequently, 3 ml of top agarose was added and the samples were plated for plaques. One hundred microliters of the collected portal blood was added to 100 μl of E. coli K91Kan. Five milliliters of LB medium was then added and the samples were incubated at 37° C. overnight in a rotating microbial incubator. The E. coli was removed by centrifugation and the amplified phage supernatant samples were either titered directly or were PEG-precipitated, resuspended in TBS and titered. Following titration of the amplified phage, samples containing phage from each set of animals were combined, adjusting the titer of each sample to the same titer, and were plated for plaques on LB agar plates (22 cm^2 square plates). Either 12,000 or 24,000 phage were plated for plaques.
Thirty microliters of the collected systemic blood (neat and 10^−2, 10^−4, 10^−6 dilutions) was added to E. coli K91Kan cells, incubated at 37° C. for 10 min. Three ml of top agarose was then added and the samples were plated for plaques. One hundred microliters of the collected systemic blood was added to 100 μl of E. coli K91Kan, incubated at 37° C. for 10 min. Five milliliters of LB medium was then added and the samples were incubated at 37° C. overnight in a rotating microbial incubator. The E. coli was removed by centrifugation and the amplified phage supernatant samples were either titered directly or were PEG-precipitated, resuspended in TBS and titered. Following titration of the amplified phage, samples containing phage from each set of animals were combined, adjusting the titer of each sample to the same titer, and were plated for plaques on LB agar plates (22 cm^2 square plates). Either 12,000 or 24,000 phage were plated for plaques. The intestinal tissue portion used in each closed loop was excised. […] Alternatively, the tissue (in PBS supplemented with protease inhibitors) was homogenized in an Ultra Thorex homogenizer, washed 3 times in PBS containing protease inhibitors and resuspended in PBS containing protease inhibitors (Int-G samples). In each case, serial dilutions (neat and 10^−2, 10^−4, 10^−6 dilutions) of the tissue homogenate was titered in E. coli.
The phage amplified from the portal blood, systemic blood and intestinal tissue was plated for plaques. […] The filters were air-dried, and the DNA was cross-linked to the filter (UV crosslinking: 2 min, high setting). The filters were incubated in pre-hybridization buffer (6×SSC, 5×Denhardt's solution, 0.1% SDS, 20 μg/ml yeast tRNA) at 40° C.-45° C. for at least 60 min.
Synthetic oligonucleotides, (22-mers), complimentary to regions coding for the receptor or binding sites used to create the preselected phage library, were synthesized (see Table 14 below).
The oligonucleotides (5 pmol) were 5′ end labelled with ^32P-ATP and T4 polynucleotide kinase and approximately 2.5 pmol of labelled oligonucleotide was used in hybridization studies. […] The filters were air-dried and exposed for autoradiography for 15 hours, 24 hours or 72 hours.
Hybridization data for pools from each receptor group of rats was compiled.

The nature of data set [6]: Drug potency, peptide loading and size of coacervated particles. The conditions noted are these: formulation 1 particles (coacervation), blend. The data set is classed as physicochemical.

As to “gst-SPCGGGSWCRFMQGGLFGGRTDGCGAHRNRTSASLEPPSSDY [GST-SNi34]”, the “binding to fixed Caco-2 or C2BBe1 cells relative to GST control” value in data set [1] was “bound”.
For `CC(C)C[C@H](NC(=O)[C@H](CCCNC(=N)N)NC(=O)[C@H](CCCNC(=N)N)NC(=O)[C@H](C)NC(=O)[C@H](Cc1c[nH]cn1)NC(=O)[C@H](CO)NC(=O)[C@H](CO)NC(=O)[C@@H](N)CCCCNS(=O)(=O)c1cccc2c(N(C)C)cccc12)C(=O)N[C@@H](CCCNC(=N)N)C(=O)N[C@H](C(=O)N[C@@H](CCCNC(=N)N)C(N)=O)[C@@H](C)O` [ZElan076] (H-K(Dansyl)SSHARRLRTR-NH2), in data set [2], the “Binding value at 50 μg/ml (Southern Ab)” value is given as 0.42 and the “Binding value at 20 μg/ml” value was found to be 0.08. In data set [2] (first 50 μg/ml column), the “Binding value at 50 μg/ml” value amounted to 1.00. The “Binding value at 50 μg/ml” value in data set [2] (second 50 μg/ml column) amounted to 0.41. The “Binding value at 50 μg/ml (Jackson Ab)” value in data set [3] was 0.60.
The like results for `CC(C)C[C@H](NC(=O)[C@H](CCCNC(=N)N)NC(=O)[C@H](CCCNC(=N)N)NC(=O)[C@H](CC(N)=O)NC(=O)[C@H](Cc1c[nH]cn1)NC(=O)[C@H](C)NC(=O)[C@H](CO)NC(=O)[C@@H](N)CCCCNS(=O)(=O)c1cccc2c(N(C)C)cccc12)C(=O)N[C@@H](CCCNC(=N)N)C(=O)N[C@H](C(=O)N[C@@H](CCCNC(=N)N)C(N)=O)[C@@H](C)O` [ZElan074] (H-K(Dansyl)SAHNRRLRTR-NH2) were, in that order, 0.48, 0.06, 0.82, 0.52 and 0.71.
The like results for `CC(C)C[C@H](NC(=O)[C@H](CCCNC(=N)N)NC(=O)[C@H](CCCNC(=N)N)NC(=O)[C@H](CC(N)=O)NC(=O)[C@H](Cc1c[nH]cn1)NC(=O)[C@H](CO)NC(=O)[C@H](CO)NC(=O)[C@@H](N)CCCCNS(=O)(=O)c1cccc2c(N(C)C)cccc12)C(=O)N[C@@H](C)C(=O)N[C@H](C(=O)N[C@@H](CCCNC(=N)N)C(N)=O)[C@@H](C)O` [ZElan080] (H-K(Dansyl)SSHNRRLATR-NH2) were, in that order, 0.38, 0.23, 0.84, 0.45 and 0.67.
Take `C[C@H](NC(=O)[C@H](CCCNC(=N)N)NC(=O)[C@H](CCCNC(=N)N)NC(=O)[C@H](CC(N)=O)NC(=O)[C@H](Cc1c[nH]cn1)NC(=O)[C@H](CO)NC(=O)[C@H](CO)NC(=O)[C@@H](N)CCCCNS(=O)(=O)c1cccc2c(N(C)C)cccc12)C(=O)N[C@@H](CCCNC(=N)N)C(=O)N[C@H](C(=O)N[C@@H](CCCNC(=N)N)C(N)=O)[C@@H](C)O` [ZElan079] (H-K(Dansyl)SSHNRRARTR-NH2): in data set [2], the “Binding value at 50 μg/ml (Southern Ab)” value came out at 0.53 and the “Binding value at 20 μg/ml” value is on record as 0.31. Besides, the “Binding value at 50 μg/ml” value in data set [2] (first 50 μg/ml column) is 0.97. The “Binding value at 50 μg/ml” value in data set [2] (second 50 μg/ml column) is reported as 0.68. The “Binding value at 50 μg/ml (Jackson Ab)” value in data set [3] worked out at 0.83.
Turning to gst-SSHNRRLRTR [GST-114], the “Value: binding to P100 as a ratio of GST-HAX42 binding” value (“Value: binding to P100 as a ratio” below) in data set [4] stood at 0.17.
For the compound `CC(C)C[C@H](NC(=O)[C@H](C)NC(=O)[C@H](CCCNC(=N)N)NC(=O)[C@H](CC(N)=O)NC(=O)[C@H](Cc1c[nH]cn1)NC(=O)[C@H](CO)NC(=O)[C@H](CO)NC(=O)[C@@H](N)CCCCNS(=O)(=O)c1cccc2c(N(C)C)cccc12)C(=O)N[C@@H](CCCNC(=N)N)C(=O)N[C@H](C(=O)N[C@@H](CCCNC(=N)N)C(N)=O)[C@@H](C)O` [ZElan078] (H-K(Dansyl)SSHNRALRTR-NH2), the “Binding value at 50 μg/ml (Southern Ab)” value in data set [2] was 0.47. The “Binding value at 20 μg/ml” value in data set [2] is 0.11. Further, the entries for the “Binding value at 50 μg/ml” value in data set [2] (first 50 μg/ml column) and in data set [2] (second 50 μg/ml column) were 0.87 and 0.69, respectively. In addition, the “Binding value at 50 μg/ml (Jackson Ab)” value in data set [3] was 0.68.
For the compound “glutathione S-transferase [GST, reference compound]”, the “Value: binding to P100 as a ratio” value in data set [4] turned out to be 0.48.
For the compound “gst-RGSTGTAGGERSGVLNLHTRDNASGSGFKPWYPSNRGHK [GST-5PAX5]”, the “binding to fixed Caco-2 or C2BBe1 cells relative to GST control” value in data set [1] is given as “weak to moderate binding”.
On to “STPPSREAYSRPYSVDSDSDTNAKHSSHNRRLRTRSRPN [PAX2]”, for which, in data set [5] (text summary of HPT1 and hPEPT1 pools), the “presence in the systemic circulation (in words)” value was “found in the portal and systemic circulation”. Moreover, the “presence in the intestine samples or fractions (in words)” value in data set [5] (text summary of the four pools) is reported as “not found in the intestine samples”. Also, the “Insulin (insulin potency)” value in data set [6] (coated with the named peptide) was 60.7 mg/g. The “Peptide (level of peptide coated onto the particles)” value in data set [6] (measured by fluorescence) was determined as 3.51 µL/mg.
With gst-SRPYSVDSDSDTNAKHSSHNR [GST-105], the “Value: binding to P100 as a ratio” value in data set [4] is reported as −0.08.
As to gst-RRLRTRSRPN [GST-115], in data set [4], the “Value: binding to P100 as a ratio” value is 0.36.
In the case of gst-STPPSREAYSRPYSVDSDSD [GST-104], in data set [4], the “Value: binding to P100 as a ratio” value was found to be 0.01.
As to gst-TNAKHSSHN [GST-113], the “Value: binding to P100 as a ratio” value in data set [4] came out at 0.26.
